Source: US20250304587A1, “WEE1 INHIBITOR, PREPARATION THEREFOR AND USE THEREOF” (JIANGSU TASLY DIYI PHARMACEUTICAL CO., LTD., priority 2022, published 2025)

Assays:
[1] = Metabolic stability in liver microsomes, dog; type: in vitro ADME
Method: (§1) Microsomes were taken out from the −80° C. refrigerator, rapidly melted in a 37° C. water bath and placed on ice until ready to use. The test article was diluted with DMSO to prepare a 10 mM stock solution, and then diluted with acetonitrile to a 0.5 mM secondary stock solution. […] NADPH was diluted with Buffer C to a working solution of 6 mM for the starter solution. An acetonitrile solution containing an internal standard was prepared as the precipitant, and Verapamil-HCl was chosen as the internal standard at a concentration of 4 ng/ml. […] A separate plate with pointed bottom wells, noted as a precipitation plate, was added with 135 μL precipitant per well; 0 h samples were transferred to the plate after 10 min incubation and 15 μL of starter solution was added; the plate was placed on ice before centrifugation. The diluted starter solution was added in sufficient quantity to the dispensing plate to facilitate the multichannel pipette aspiration operation. The reaction was carried out on a warm incubation shaker and 15 μL of starter solution/sample is added to the plate using a multichannel pipette. The reaction was mixed with a slight shake to initiate the reaction, which was accurately timed and recorded using a timer; After the reaction time had elapsed, all the solution in the plate was aspirated using the multichannel pipette and added to the precipitation plate to terminate the reaction at that point in time. After all reactions had been terminated, the plates were shaken for ten minutes on a plate shaker at 600 rpm to precipitate the protein. The plate was centrifuged at 4° C. for 15 minutes at maximum rpm. 80 μL of supernatant was taken, 320 μL of pure water was added and mixed for LC-MS analysis.

[2] = Metabolic stability in liver microsomes, monkey; type: in vitro ADME
Method: as §1

[3] = Pharmacokinetics on single dose in mice (iv and po); type: in vivo, male ICR mice
Text: The present experiment aimed to study the pharmacokinetics in the plasma of male ICR mice after the administration. The present experiment aimed to obtain the pharmacokinetic profile of the subject compounds in ICR mice (both intravenous and oral) [table] • Species: SPF grade male ICR mice • Body weight/weekly age: about 30 g • Amount: 6 • Experimental animal source: Charles River • Intravenous solvents: 5% DMSO—10% Solutol-85% HPBCD (20%, WN) • “Gavage solvent/dosage form: 5% DMSO—10% Solutol-85% HPBCD (20%, WN)” • Intravenous: 1 mg/kg in a volume of 5 mL/kg • Gavage: 10 mg/kg in a volume of 10 mL/kg • Ultrasound for 5 min before administration • Intravenous: 0.2 mg/mL • Gavage: 1 mg/mL • Fast overnight before administration and feed four hours after administration. […] The blood samples were stored in a refrigerator at or below −20 C for LC-MS/MS analysis. The samples were detected for drug concentration at each time point by LC-MS/MS. Pharmacokinetic parameters terminal elimination half-life (t½), area under the curve (AUC), apparent volume of distribution (Vd), clearance (CL), mean residence time (MRT), and Cmax were calculated using the non-compailinental model of Phoenix WinNonlin 5.2. Bioavailability (F %) was directly from serum concentration results. Mean standard deviation (X±SD) was used for blood concentration and pharmacokinetic parameters, etc. Specific testing and analytical methods were specified in the form of protocol revisions.

[4] = Pharmacokinetics on single dose in rats (iv and po); type: in vivo, male SD rats
Method: Pharmacokinetic properties of the drug in male SD rats were evaluated by the same method with in vivo pharmacokinetic study with mice.

[5] = test system: human colon cancer HT-29 cells xenograft; experiment: Anti-tumor efficacy, HT-29 xenograft (CDX model); type: in vivo, female BALB/c nude mice; settings: HT-29 model, after 24 days
Method: (§2) Experimental method: BALB/c nude mice (provided by Charles River) were selected, 7-8 weeks old and weighing 19-22 g.
The prepared and cultured HT-29 cells were counted, and 5×10^6 HT-29 cells were mixed in 0.1 mL PBS solution and inoculated subcutaneously on the right wing of mice. When the cells became tumors and the average tumor volume reached 120 mm^3, they began to be grouped and administered. […] The experimental indicator was to check whether the tumor growth was inhibited. The formula for calculating the tumor volume was: V=0.5a×b^2, where a and b respectively indicated the long and short diameters of the tumor.
(§3) The anti-tumor effects of the compounds were evaluated by TGI (%).

[6] = test system: human pancreatic cancer BxPC3 cells xenograft; experiment: Anti-tumor efficacy, BxPC3 xenograft (CDX model); type: in vivo, female BALB/c nude mice; settings: after 40 days
Method: as §2
The prepared and cultured BxPC3 cells were counted, and 1×10^7 BxPC3 cells were mixed in 0.1 mL PBS solution and inoculated subcutaneously on the right wing of mice. When the cells became tumors and the average tumor volume reached 190 mm^3, they began to be grouped and administered. […] The experimental indicator was to check whether the tumor growth was inhibited. The formula for calculating the tumor volume was: V=0.5a×b^2, where a and b respectively indicated the long and short diameters of the tumor.
as §3

[7] = male, mouse, plasma, ICR mice, iv 1 mg/kg
[8] = male, mouse, plasma, ICR mice, po 10 mg/kg
[9] = male, rat, plasma, SD rats, iv 1 mg/kg
[10] = male, rat, plasma, SD rats, po 10 mg/kg

SMILES: [2H][C@]1(O)c2nc(-n3c4nc(Nc5ccc(N6CCC7(CCN(C)CC7)CC6)cc5)ncc4c(=O)n3CC=C)ccc2CCC12CC2 [Compound 37b]
- T1/2 liver microsomes Dog [1]: 69.59 min
- T1/2 liver microsomes Monkey [2]: 37.98 min
- AUClast ([3]; ICR mice, iv 1 mg/kg): 558 ng·h/mL
- C0 ([3]; ICR mice, iv 1 mg/kg): 186 ng/mL
- Cl ([3]; ICR mice, iv 1 mg/kg): 26.3 mL/min/kg
- T1/2 ([3]; ICR mice, iv 1 mg/kg): 179 min
- AUClast ([3]; ICR mice, po 10 mg/kg): 1607 ng·h/mL
- Cl ([3]; ICR mice, po 10 mg/kg): 74 mL/min/kg
- Cmax ([3]; ICR mice, po 10 mg/kg): 307 ng/mL
- F ([3]; ICR mice, po 10 mg/kg): 29%
- Tmax ([3]; ICR mice, po 10 mg/kg): 160 min
- Pharmacokinetic properties (in words) ([3]; mice, compared with AZD1775): better pharmacokinetic properties than the control compound AZD1775
- AUClast ([4]; SD rats, iv 1 mg/kg): 471 ng·h/mL
- C0 ([4]; SD rats, iv 1 mg/kg): 313.2 ng/mL
- T1/2 ([4]; SD rats, iv 1 mg/kg): 238 min
- AUClast ([4]; SD rats, po 10 mg/kg): 1131 ng·h/mL
- Cmax ([4]; SD rats, po 10 mg/kg): 188.6 ng/mL
- F ([4]; SD rats, po 10 mg/kg): 24.01%
- Tmax ([4]; SD rats, po 10 mg/kg): 160 min
- Drug exposure (in words) ([4]; rats, compared with AZD1775): obvious advantages in drug exposure
- TGI ([5]; 30 mg/kg qd): 34.7%
- TGI ([5]; 60 mg/kg qd): 57.7%
- TGI ([5]; 120 mg/kg qd): 100.0%
- TGI ([6]; 30 mg/kg qd): 70.1%
- TGI ([6]; 60 mg/kg qd): 72.4%
- TGI ([6]; 120 mg/kg qd): 100.9%

SMILES: C=CCn1c(=O)c2cnc(Nc3ccc(N4CCN(C)CC4)cc3)nc2n1-c1cccc(C(C)(C)O)n1 [AZD1775, reference compound]
- half-life at 1 µM ([1]; read-out: T1/2 liver microsomes Dog): 10.8 min
- half-life at 1 µM ([2]; read-out: T1/2 liver microsomes Monkey): 20.1 min
- Cl ([3]; ICR mice, po 10 mg/kg): 446 mL/min/kg
- F ([3]; ICR mice, po 10 mg/kg): 32%
- AUC(0-t) [3, 7]: 116 ng·h/mL
- clearance [3, 7]: 134 mL/min/kg
- half-life [3, 7]: 30 min
- C0 ([3]; male, mouse, plasma, ICR mice, iv 1 mg/kg, read-out: C0): 250 ng/mL
- AUC(0-t) [3, 8]: 396 ng·h/mL
- half-life [3, 8]: 52.2 min
- Cmax ([3]; male, mouse, plasma, ICR mice, po 10 mg/kg, read-out: Cmax): 398 ng/mL
- Tmax ([3]; male, mouse, plasma, ICR mice, po 10 mg/kg, read-out: Tmax): 25.2 min
- Cl ([4]; SD rats, po 10 mg/kg): 170.8 mL/min/kg
- F ([4]; SD rats, po 10 mg/kg): 121.8%
- AUC(0-t) [4, 9]: 72.3 ng·h/mL
- clearance [4, 9]: 148 mL/min/kg
- half-life [4, 9]: 54.6 min
- C0 ([4]; male, rat, plasma, SD rats, iv 1 mg/kg, read-out: C0): 101 ng/mL
- AUC(0-t) [4, 10]: 881 ng·h/mL
- half-life [4, 10]: 161 min
- Cmax ([4]; male, rat, plasma, SD rats, po 10 mg/kg, read-out: Cmax): 188 ng/mL
- TGI ([5]; 60 mg/kg qd): 54.5%
- TGI ([6]; 60 mg/kg qd): 57.6%
